Laboratory results taken from the NIST ThermoML archive (doi:10.1016/j.jct.2011.07.011).
Several values for one entry are separate records, joined by “and”; a condition that tells them apart may be missing. Equal entries are not always repeated. ± gives the expanded uncertainty stated by the source.

Details: Crystal; Heating/Cooling curves

Triple point temperature: 24.54 ± 0.077 K and 24.69 ± 0.077 K
SMILES: [Ne] [neon]
